Tested on: BJ fibroblasts
Test: Feeder-free reprogramming of BJ fibroblasts to iPSCs on MATRIGEL GFR matrix (Example 11)
Assay type: cell-based, human
Conditions: Day 17
Description: In EXAMPLE 11 embodiments, each in vitro-synthesized pseudouridine-containing ssRNA (i.e., synthesized using ΨTP in place of UTP in the IVT reaction) that encoded an iPSC induction factor [e.g., OCT4, SOX2, KLF4, LIN28, and either cMYC or cMYC(T58A)] or other pseudo-uridine-containing ssRNAs transfected together with the iPSC induction factors was treated with RNase III with 1 mM Mg(OAc)2 prior to capping and tailing of the ssRNA. In this EXAMPLE 11, the RNAse III treatment reactions also contained 0.8 U/microliter SCRIPTGUARD™ RNase inhibitor (CELLSCRIPT, INC.).
Prior to use for reprogramming, BJ fibroblasts (ATCC) were plated 5×10^4 cells per well on 6-well tissue culture plates coated with 83 ng per well of MATRIGEL™ GFR matrix (BD Biosciences, San Jose, Calif.) in Advanced MEM (Invitrogen, Carlsbad, Calif.) supplemented with 10% FBS (Fisher) and 2 mM GLUTAMAX™-I (Invitrogen, Carlsbad, Calif.), a minimum essential medium (MEM) useful for growth of fibroblast cells.
On the following day, the medium was changed to a “Feeder-free Reprogramming Medium” developed by the present applicants. This Feeder-free Reprogramming Medium was composed of Dulbecco's modified Eagle medium with nutrient mixture F-12 (DMEM/F12; (DMEM/F12; Invitrogen, Carlsbad, Calif.) supplemented with 20% KNOCKOUT™ serum replacement (Invitrogen), 2 mM GLUTAMAX™-I (Invitrogen), 0.1 mM non-essential amino acids solution (Invitrogen), 2 micromolar of the transforming growth factor 0 (TGFβ) inhibitor STEMOLECULE™ SB431542 (Stemgent®, Cambridge, Mass., USA), 0.5 micromolar of the MEK signaling pathway inhibitor STEMOLECULE™ PD0325901 (Stemgent), and/or 10 ng/ml the recombinant mouse cytokine, leukemia inhibitory factor (LIF or mLIF; Invitrogen, Carlsbad, Calif.), and 100 ng/ml basic human recombinant fibroblast growth factor (FGF; Invitrogen) with penicillin-streptomycin antibiotics. In some experiments, a lower or higher concentration of one or more of these inhibitors is used (e.g., 1-20 micromolar of the TGFβ inhibitor, 0.5-10 micromolar of the MEK signaling inhibitor, and/or 5-50 ng/ml the recombinant mouse cytokine, leukemia inhibitory factor). Since some of the molecules being inhibited may be introduced by the reagents or media used (e.g., TGFβ in the MATRIGEL™ or other extracellular matrix, the concentrations of the inhibitors used may vary based on the reagents and media used. In some experiments, the TGFβ inhibitor, MEK signaling inhibitor, and/or LIF was omitted from the feeder-free reprogramming medium. The Feeder-free Reprogramming Medium was changed daily one hour prior to each transfection with mRNA reprogramming factors. […] kit (Minis Bio LLC, Madison, Wis., USA) as described in the product literature: Briefly, a solution comprising a mixture of all of the mRNA reprogramming factors was diluted with 250 microliters of OPTI-MEM® I reduced serum medium (Invitrogen, Carlsbad, Calif.), and then 2.4 microliters of TRANSIT™ BOOST was added and mixed, followed by 2.4 microliters of the TRANSIT™ transfection reagent. In some embodiments, no inhibitor of expression of an innate immune response pathway was used. In some other embodiments, 132 ng of pseudouridine-containing mRNA encoding the B18R protein was added to the reprogramming factors comprising mRNA encoding OCT4, SOX2, KLF4, LIN28, and cMYC for reprogramming BJ fibroblasts. This transfection mix was applied dropwise to cells. Cells were then incubated at 37° C. in 5% CO2 until the next day's transfection. After 18 transfections, the medium was changed to a different “iPSC Maintenance Medium” that that was composed of DMEM/F12 supplemented with 20% KNOCKOUT™ serum replacement, 1 mM L-glutamine, 0.1 mM non-essential amino acids solution, and 100 ng/ml basic human recombinant fibroblast growth factor (FGF) (all from Invitrogen, Carlsbad, Calif.) with penicillin-streptomycin antibiotics for a few more days until iPSC colonies were big enough to pick manually. […]

## O=C(NOC[C@H](O)CO)c1ccc(F)c(F)c1Nc1ccc(I)cc1F [PD0325901]
PD0325901 0 μM, 2 micromolar SB431542
  iPSC Colonies Observed: 1
PD0325901 0.5 μM, 2 micromolar SB431542
  iPSC Colonies Observed: 77
PD0325901 1 μM, 2 micromolar SB431542
  iPSC Colonies Observed: 27
PD0325901 2 μM, 2 micromolar SB431542
  iPSC Colonies Observed: 94
PD0325901 10 μM, 2 micromolar SB431542
  iPSC Colonies Observed: 11
PD0325901 15 μM, 2 micromolar SB431542
  iPSC Colonies Observed: 0

## NC(=O)c1ccc(-c2nc(-c3ccc4c(c3)OCO4)c(-c3ccccn3)[nH]2)cc1 [SB431542]
SB431542 0 μM, five-factor Ψ-mRNA mix daily for 17 days
  iPSC Colonies Observed: 0
SB431542 1 μM
  iPSC Colonies Observed: 9
SB431542 2 μM
  iPSC Colonies Observed: 71
SB431542 4 μM
  iPSC Colonies Observed: 160
